Results published in ChEMBL document CHEMBL4706499, “PTG-0861: A novel HDAC6-selective inhibitor as a therapeutic strategy in acute myeloid leukaemia” (Eur J Med Chem, 2020).

How the values were obtained:
[1] = target: T1, Protein deacetylase HDAC6 (Homo sapiens, UniProt Q9UBN7); assay: Inhibition of recombinant full length human HDAC6 expressed in SF9 baculovirus using FAM- labelled acetylated peptide as substrate measured by Electrophoretic mobility shift assay
T1 sequence (Q9UBN7 whole entry): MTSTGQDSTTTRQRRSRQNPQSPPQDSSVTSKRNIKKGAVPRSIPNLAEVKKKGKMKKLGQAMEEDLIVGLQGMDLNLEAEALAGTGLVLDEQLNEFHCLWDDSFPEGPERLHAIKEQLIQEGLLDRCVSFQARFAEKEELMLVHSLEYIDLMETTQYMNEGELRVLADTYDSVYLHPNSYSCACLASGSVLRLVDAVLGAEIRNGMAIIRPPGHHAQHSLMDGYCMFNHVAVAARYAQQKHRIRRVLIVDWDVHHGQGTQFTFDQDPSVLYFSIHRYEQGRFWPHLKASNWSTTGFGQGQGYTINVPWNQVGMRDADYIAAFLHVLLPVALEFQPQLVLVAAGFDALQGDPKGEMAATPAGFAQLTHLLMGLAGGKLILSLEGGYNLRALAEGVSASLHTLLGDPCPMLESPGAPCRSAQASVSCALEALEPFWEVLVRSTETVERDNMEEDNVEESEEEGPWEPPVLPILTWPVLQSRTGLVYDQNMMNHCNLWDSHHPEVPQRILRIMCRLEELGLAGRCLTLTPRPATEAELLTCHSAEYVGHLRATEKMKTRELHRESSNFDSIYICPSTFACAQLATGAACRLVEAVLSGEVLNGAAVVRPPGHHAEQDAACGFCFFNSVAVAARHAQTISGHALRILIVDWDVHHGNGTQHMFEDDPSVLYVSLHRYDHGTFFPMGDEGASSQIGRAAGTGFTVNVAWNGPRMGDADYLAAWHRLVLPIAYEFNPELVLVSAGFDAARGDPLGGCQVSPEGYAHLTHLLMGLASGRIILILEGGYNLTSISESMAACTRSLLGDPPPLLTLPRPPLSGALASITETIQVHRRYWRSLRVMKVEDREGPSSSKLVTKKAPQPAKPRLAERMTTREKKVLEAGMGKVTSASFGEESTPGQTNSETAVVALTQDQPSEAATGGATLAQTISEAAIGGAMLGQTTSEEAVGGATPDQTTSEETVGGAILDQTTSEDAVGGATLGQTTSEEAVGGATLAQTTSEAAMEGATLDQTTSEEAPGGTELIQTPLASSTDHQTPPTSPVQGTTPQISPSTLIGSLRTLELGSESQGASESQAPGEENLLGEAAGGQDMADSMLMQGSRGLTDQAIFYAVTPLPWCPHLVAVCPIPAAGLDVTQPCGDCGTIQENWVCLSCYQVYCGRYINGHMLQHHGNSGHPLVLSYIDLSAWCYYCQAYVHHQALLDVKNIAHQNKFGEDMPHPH

[2] = Cytotoxicity against human MRC9 cells measured after 72 hrs by spectrophotometer method; type: cell-based; conditions: MRC9, 72 h
[3] = Selectivity ratio of IC50 for full length recombinant human HDAC3 to IC50 for full length recombinant human HDAC6
Histone deacetylase 11 = target: T2, Histone deacetylase 11 (Homo sapiens, UniProt Q96DB2); assay: Inhibition of recombinant full length human HDAC11 expressed in SF9 baculovirus using FAM- labelled acetylated peptide as substrate measured by Electrophoretic mobility shift assay
T2 sequence (Q96DB2 whole entry): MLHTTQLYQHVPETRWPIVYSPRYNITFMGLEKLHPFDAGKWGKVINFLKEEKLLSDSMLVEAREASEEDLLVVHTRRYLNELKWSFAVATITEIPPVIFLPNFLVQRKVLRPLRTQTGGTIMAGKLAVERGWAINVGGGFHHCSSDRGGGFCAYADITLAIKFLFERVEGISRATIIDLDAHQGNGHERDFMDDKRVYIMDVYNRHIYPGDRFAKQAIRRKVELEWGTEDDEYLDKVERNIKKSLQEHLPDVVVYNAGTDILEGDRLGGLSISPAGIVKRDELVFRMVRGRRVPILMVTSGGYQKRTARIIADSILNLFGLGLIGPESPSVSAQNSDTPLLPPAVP

Histone deacetylase 3 = Histone deacetylase 3 (Homo sapiens, UniProt O15379); assay: Inhibition of recombinant full length human HDAC3 expressed in SF9 baculovirus using FAM- labelled acetylated peptide as substrate measured by Electrophoretic mobility shift assay
MV4-11 = assay: Cytotoxicity against human MV4-11 cells measured after 72 hrs by spectrophotometer method; type: functional, cell-based; conditions: MV4-11, 72 h
Histone deacetylase 8 = target: T3, Histone deacetylase 8 (Homo sapiens, UniProt Q9BY41); assay: Inhibition of recombinant full length human HDAC8 expressed in SF9 baculovirus using FAM- labelled acetylated peptide as substrate measured by Electrophoretic mobility shift assay
T3 sequence (Q9BY41 whole entry): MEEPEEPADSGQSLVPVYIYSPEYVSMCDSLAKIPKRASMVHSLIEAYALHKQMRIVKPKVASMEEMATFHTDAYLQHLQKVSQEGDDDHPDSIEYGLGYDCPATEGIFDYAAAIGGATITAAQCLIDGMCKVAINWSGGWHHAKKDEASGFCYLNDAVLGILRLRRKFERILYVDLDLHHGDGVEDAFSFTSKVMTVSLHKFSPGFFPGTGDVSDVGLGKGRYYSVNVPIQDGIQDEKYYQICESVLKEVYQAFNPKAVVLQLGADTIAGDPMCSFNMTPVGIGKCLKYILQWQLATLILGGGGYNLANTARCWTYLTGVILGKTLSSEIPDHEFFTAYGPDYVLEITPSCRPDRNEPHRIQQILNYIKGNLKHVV

Sequence of Histone deacetylase 3 (O15379 whole entry): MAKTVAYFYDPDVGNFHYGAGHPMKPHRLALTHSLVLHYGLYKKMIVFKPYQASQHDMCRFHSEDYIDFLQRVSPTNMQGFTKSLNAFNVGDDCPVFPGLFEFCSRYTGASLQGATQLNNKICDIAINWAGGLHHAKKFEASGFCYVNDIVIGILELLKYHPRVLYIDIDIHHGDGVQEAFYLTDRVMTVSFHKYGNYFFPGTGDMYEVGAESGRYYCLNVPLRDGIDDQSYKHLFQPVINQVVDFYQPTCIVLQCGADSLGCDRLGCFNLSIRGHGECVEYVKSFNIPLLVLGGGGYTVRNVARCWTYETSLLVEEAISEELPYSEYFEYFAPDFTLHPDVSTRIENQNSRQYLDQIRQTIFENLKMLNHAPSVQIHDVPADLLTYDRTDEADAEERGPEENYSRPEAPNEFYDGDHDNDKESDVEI

Compound | IC50 [1] | Ratio IC50 [3] | IC50 (Histone deacetylase 11) | IC50 (Histone deacetylase 3) | IC50 (Histone deacetylase 8) | IC50 [2] | IC50 (MV4-11)
O=C(NO)c1ccc(CN(C(=O)c2c(F)c(F)c(F)c(F)c2F)C2CC2)cc1 | 18.4 nM | > 52.8 | > 1000 nM | > 1000 nM | 971 nM | > 50000 nM | 7370 nM
CCN(C(=O)c1ccc(C(C)(C)C)cc1)c1ccc(C(=O)NO)cc1 | > 1000 nM | – | > 1000 nM | > 1000 nM | 281 nM | > 25000 nM | 8230 nM
CC(C)(C)c1ccc(C(=O)N(Cc2ccc(C(=O)NO)cc2)C2CC2)cc1 | 20.9 nM | 12.9 | > 1000 nM | 323 nM | 269 nM | > 25000 nM | 8570 nM
O=C(NO)c1ccc(NC(=O)c2ccc(N3CCOCC3)cc2)cc1 | 96.6 nM | > 9.53 | > 1000 nM | > 1000 nM | 921 nM | > 50000 nM | 17100 nM
CC(C)(C)c1ccc(NS(=O)(=O)c2ccc(C(=O)NO)cc2)cc1 | 17.5 nM | – | 223 nM | 34.4 nM | 9.4 nM | > 50000 nM | 7160 nM
O=C(NO)c1ccc(NC(=O)c2ccc(C3CCCCC3)cc2)cc1 | 26.6 nM | 5.98 | 411 nM | 159 nM | 208 nM | > 25000 nM | 530 nM
CC(C)(C)c1ccc(C(=O)NCc2ccc(C(=O)NO)cc2)cc1 | 32.4 nM | – | > 1000 nM | 15.2 nM | 162 nM | > 25000 nM | 570 nM
CC(C)(C)c1cccc(C(=O)Nc2ccc(C(=O)NO)cc2)c1 | – | – | – | – | – | > 25000 nM | 3880 nM

The remaining compounds from weak to strong by IC50 [1], led by results:

IC50 [1] | Ratio IC50 [3] | IC50 (Histone deacetylase 11) | IC50 (Histone deacetylase 3) | IC50 (Histone deacetylase 8) | Compound | IC50 [2] | IC50 (MV4-11)
17.3 nM | 42.8 | > 1000 nM | 740 nM | > 1000 nM | CN(Cc1ccc(C(=O)NO)cc1)C(=O)c1c(F)c(F)c(F)c(F)c1F | > 25000 nM | 3730 nM
14 nM | – | > 1000 nM | 13 nM | 283 nM | O=C(/C=C/c1ccc(CNC(=O)c2c(F)c(F)c(F)c(F)c2F)cc1)NO | > 25000 nM | 320 nM
14 nM | 62.6 | > 1000 nM | > 1000 nM | 876 nM | CC(C)N(Cc1ccc(C(=O)NO)cc1)C(=O)c1c(F)c(F)c(F)c(F)c1F | > 15000 nM | 16400 nM
13 nM | – | > 1000 nM | 3.74 nM | 74.3 nM | CC(C)(C)c1ccc(CC(=O)Nc2ccc(C(=O)NO)cc2)cc1 | > 15000 nM | 340 nM
12 nM | 5.83 | > 1000 nM | 70 nM | 420 nM | O=C(/C=C/c1ccc(CN(C(=O)c2c(F)c(F)c(F)c(F)c2F)C2CC2)cc1)NO | > 25000 nM | 760 nM
10.4 nM | 1.05 | 447 nM | 10.9 nM | 43.9 nM | CC(C)(C)c1ccc(NC(=O)c2ccc(C(=O)NO)cc2)cc1 | > 25000 nM | 1440 nM
2.81 nM | 4.23 | 704 nM | 11.9 nM | 20.4 nM | O=C(NO)c1ccc(NC(=O)c2ccc(C3CC3)cc2)cc1 | > 25000 nM | 1080 nM
2.01 nM | 1.12 | 44.2 nM | 2.25 nM | 13.3 nM | CC(C)(C)c1ccc(S(=O)(=O)Nc2ccc(C(=O)NO)cc2)cc1 | > 25000 nM | 1180 nM
1.6 nM | 6.81 | > 1000 nM | 10.9 nM | 21.6 nM | Cc1ccc(C(=O)Nc2ccc(C(=O)NO)cc2)cc1 | > 25000 nM | 2400 nM
1.46 nM | 2.14 | 700 nM | 3.13 nM | 14 nM | O=C(NO)c1ccc(NC(=O)c2c(F)c(F)c(F)c(F)c2F)cc1 | > 25000 nM | 1510 nM
